Counter-ions that a name gives are not always drawn.
Tests used:
myeloperoxidase [1] = target: T1, myeloperoxidase (Homo sapiens, UniProt P05164); test: MPO Peroxidation Assay (Amplex Red Assay); assay type: biochemical; details: potency range class
T1 sequence (P05164 49-745): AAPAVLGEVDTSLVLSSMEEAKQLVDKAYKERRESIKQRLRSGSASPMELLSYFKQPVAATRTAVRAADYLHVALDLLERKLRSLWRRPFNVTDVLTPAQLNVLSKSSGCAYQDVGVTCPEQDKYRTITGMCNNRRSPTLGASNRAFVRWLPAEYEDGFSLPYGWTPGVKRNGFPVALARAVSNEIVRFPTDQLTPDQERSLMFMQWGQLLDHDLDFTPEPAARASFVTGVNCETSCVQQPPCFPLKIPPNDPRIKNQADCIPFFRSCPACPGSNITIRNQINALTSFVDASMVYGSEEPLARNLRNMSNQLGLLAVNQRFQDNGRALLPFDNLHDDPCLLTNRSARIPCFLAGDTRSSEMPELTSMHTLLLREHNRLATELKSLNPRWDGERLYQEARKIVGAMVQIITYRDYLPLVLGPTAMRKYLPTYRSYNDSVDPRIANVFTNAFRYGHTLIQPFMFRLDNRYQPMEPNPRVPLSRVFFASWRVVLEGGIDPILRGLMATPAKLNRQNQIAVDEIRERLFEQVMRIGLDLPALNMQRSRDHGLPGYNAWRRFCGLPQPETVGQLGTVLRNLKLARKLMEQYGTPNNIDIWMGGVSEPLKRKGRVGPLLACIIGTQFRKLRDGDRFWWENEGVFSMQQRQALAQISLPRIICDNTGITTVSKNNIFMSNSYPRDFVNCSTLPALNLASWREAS

myeloperoxidase [2] = target: T1, myeloperoxidase; test: MPO Chlorination Assay (APF Assay); assay type: biochemical; details: potency range class
[3] = read-out: Amplex Red Assay IC50 value

| SMILES | IC50 (myeloperoxidase [1]; [3]) [µM] | IC50 (myeloperoxidase [2]; read-out: APF Assay IC50 value) [µM] | IC50 (myeloperoxidase [1]; Amplex Red Assay IC50 value (μM)) [µM] | IC50 (myeloperoxidase [2]; APF Assay IC50 value (μM)) [µM] |
| --- | --- | --- | --- | --- |
| Nc1cc([C@H](CCN(CC(O)C(F)(F)F)C23CCC(c4ccccc4)(CC2)CC3)c2ccccc2)c2nn[nH]c2n1 (stereo partly drawn) [Example 198, 3-{[(3R)-3-{5-amino-3H-[1,2,3]triazolo [4,5-b]pyridin-7-yl}-3-phenylpropyl]({4-phenylbicyclo[2.2.2]octan-1-yl})amino}-1,1,1-trifluoropropan-2-ol] | 0.001 to 0.1 | 0.001 to 0.1 |  |  |
| Nc1cc([C@H](CC(=O)NC23CCC(c4ccccc4)(CC2)CC3)c2ccccc2)c2nn[nH]c2n1 [Example 200, (R)-3-(5-amino-3H-[1,2,3]triazolo[4,5-b]pyridin-7-yl)-3-phenyl-N-(4-phenylbicyclo[2.2.2]octan-1-yl)propanamide] | 0.101 to 0.999 | 0.001 to 0.1 |  |  |
| Nc1cc([C@H](CC(=O)NC23CCC(c4ccccc4)(CC2)C(O)C3)c2ccccc2)c2nn[nH]c2n1 (stereo partly drawn) [Example 201, (3R)-3-{5-amino-3H-[1,2,3]triazolo[4,5-b]pyridin-7-yl}-N-{3-hydroxy-4-phenylbicyclo [2.2.2]octan-1-yl}-3-phenylpropanamide] | 0.101 to 0.999 | 0.001 to 0.1 |  |  |
| Nc1cc([C@H](CC(=O)NC23CCC(c4ccccc4)(CC2)CC3)c2cccc(O)c2)c2nn[nH]c2n1 [Example 202, (3R)-3-{5-amino-3H-[1,2,3]triazolo[4,5-b]pyridin-7-yl}-3-(3-hydroxyphenyl)-N-{4-phenylbicyclo [2.2.2]octan-1-yl} propanamide] | 0.101 to 0.999 | 0.001 to 0.1 |  |  |
| Nc1cc([C@H](CC(=O)NC2CCC(c3ccccc3)c3ccccc32)c2ccccc2)c2nn[nH]c2n1 (stereo partly drawn) [Example 203, (3R)-3-{5-amino-3H-[1,2,3]triazolo[4,5-b]pyridin-7-yl}-3-phenyl-N-(4-phenyl-1,2,3,4-tetrahydronaphthalen-1-yl)propanamide] | 1 to 10 | 0.101 to 0.999 |  |  |
| Nc1cc(C(CCCN2CC(c3ccc(F)cc3)c3ccccc32)c2ccccc2)c2nn[nH]c2n1 (centres unmarked) [Example 205, 7-{4-[3-(4-fluorophenyl)-2,3-dihydro-1H-indol-1-yl]-1-phenylbutyl}-3H-[1,2,3]triazolo [4,5-b]pyridin-5-amine] | 1 to 10 | 1 to 10 |  |  |
| Nc1cc(C(CCCN2CCC(c3ccccc3)c3ccccc32)c2ccccc2)c2nn[nH]c2n1 (centres unmarked) [Example 206, 7-[1-phenyl-4-(4-phenyl-1,2,3,4-tetrahydroquinolin-1-yl)butyl]-3H-[1,2,3]triazolo [4,5-b]pyridin-5-amine] | 1 to 10 | 0.001 to 0.1 |  |  |
| Nc1cc(C(CCCN2CCC(O)(c3ccccc3)CC2)c2ccccc2)c2nn[nH]c2n1 (centres unmarked) [Example 207, 1-(4-{5-amino-3H-[1,2,3]triazolo [4,5-b]pyridin-7-yl}-4-phenylbutyl)-4-phenylpiperidin-4-ol] | 0.101 to 0.999 | 0.001 to 0.1 |  |  |
| Nc1cc(C(CCCN[C@H]2CC[C@H](c3ccccc3)CC2)c2ccccc2)c2nn[nH]c2n1 (stereo partly drawn) [Example 208, 7-(1-phenyl-4-{[(trans)-4-phenylcyclohexyl]amino}butyl)-3H-[1,2,3]triazolo [4,5-b]pyridin-5-amine] | 1 to 10 | 0.101 to 0.999 |  |  |
| Nc1cc(C(CCCN2CCC(c3ccccc3)C2)c2ccccc2)c2nn[nH]c2n1 (centres unmarked) [Example 209, 7-[1-phenyl-4-(3-phenylpyrrolidin-1-yl)butyl]-3H-[1,2,3]triazolo [4,5-b]pyridin-5-amine] | 0.101 to 0.999 | 0.101 to 0.999 |  |  |
| Nc1cc(C(CCCN2CCC3(CC2)OCc2ccccc23)c2ccccc2)c2nn[nH]c2n1 (centres unmarked) [Example 210, 7-(1-phenyl-4-{3H-spiro[2-benzofuran-1,4′-piperidine]-1′-yl}butyl)-3H-[1,2,3]triazolo [4,5-b]pyridin-5-amine] | 0.101 to 0.999 | 0.001 to 0.1 |  |  |
| N#CC1(c2ccccc2)CCN(CCCC(c2ccccc2)c2cc(N)nc3[nH]nnc23)CC1 (centres unmarked) [Example 211, 1-(4-{5-amino-3H-[1,2,3]triazolo [4,5-b]pyridin-7-yl}-4-phenylbutyl)-4-phenylpiperidine-4-carbonitrile] | 0.101 to 0.999 | 0.001 to 0.1 |  |  |
| Nc1cc(C(CCCN2CCCC(c3ccccc3)CC2)c2ccccc2)c2nn[nH]c2n1 (centres unmarked) [Example 212, 7-[1-phenyl-4-(4-phenylazepan-1-yl)butyl]-3H-[1,2,3] triazolo[4,5-b] pyridin-5-amine] | 0.101 to 0.999 | 0.001 to 0.1 |  |  |
| Nc1cc(C(CCCN2CCC(Cc3ccccc3)CC2)c2ccccc2)c2nn[nH]c2n1 (centres unmarked) [Example 213, 7-[4-(4-benzylpiperidin-1-yl)-1-phenylbutyl]-3H-[1,2,3]triazolo [4,5-b]pyridin-5-amine] | 0.101 to 0.999 | 0.101 to 0.999 |  |  |
| Nc1cc([C@H](CCCN2CCCC(c3ccccc3)CC2)c2ccccc2)c2nn[nH]c2n1 (stereo partly drawn) [Example 215, 7-[(1R)-1-phenyl-4-(4-phenylazepan-1-yl)butyl]-3H-[1,2,3]triazolo[4,5-b]pyridin-5-amine] | 0.101 to 0.999 | 0.001 to 0.1 |  |  |
| Nc1cc([C@H](CCCN2[C@@H]3CC[C@H]2C[C@](O)(c2ccc(Cl)cc2)C3)c2ccccc2)c2nn[nH]c2n1 [Example 216, (1R,3R,5S)-8-[(4R)-4-{5-amino-3H-[1,2,3]triazolo [4,5-b]pyridin-7-yl}-4-phenylbutyl]-3-(4-chlorophenyl)-8-azabicyclo[3.2.1] octan-3-ol] | 0.101 to 0.999 | 0.001 to 0.1 |  |  |
| Nc1cc([C@H](CCCN2CCC3(CC2)NC(=O)Cc2ccccc23)c2ccccc2)c2nn[nH]c2n1 [Example 217, 1′-[(4R)-4-{5-amino-3H-[1,2,3]triazolo [4,5-b]pyridin-7-yl}-4-phenylbutyl]-3,4-dihydro-2H-spiro[isoquinoline-1,4′-piperidine]-3-one] | 0.101 to 0.999 | 0.101 to 0.999 |  |  |
| Nc1cc([C@H](CCCN2CCC(c3ccc4ccccc4c3)CC2)c2ccccc2)c2nn[nH]c2n1 [Example 218, 7-[(1R)-4-[4-(naphthalen-2-yl)piperidin-1-yl]-1-phenylbutyl]-3H-[1,2,3]triazolo[4,5-b] pyridin-5-amine] | 0.101 to 0.999 | 0.001 to 0.1 |  |  |
| Nc1cc([C@H](CCCN2CC[C@H]3C[C@@H]2Cc2ccccc23)c2ccccc2)c2nn[nH]c2n1 [Example 219, 7-((R)-1-phenyl-4-((2R,6S)-1,4,5,6-tetrahydro-2,6-methanobenzo[d]azocin-3(2H)-yl)butyl)-3H-[1,2,3] triazolo[4,5-b] pyridin-5-amine] |  |  | 0.101 to 0.999 | 0.001 to 0.1 |
| Nc1cc([C@H](CCCN2CCC(c3cccc(C(F)(F)F)c3)C(O)C2)c2ccccc2)c2nn[nH]c2n1 (stereo partly drawn) [Example 220, 1-[(4R)-4-{5-amino-3H-[1,2,3]triazolo [4,5-b]pyridin-7-yl}-4-phenylbutyl]-4-[3-(trifluoromethyl)phenyl]piperidin-3-ol] | 0.101 to 0.999 | 0.101 to 0.999 |  |  |
| Nc1cc([C@H](CCCN2CCC(Cc3ccccc3)C2)c2ccccc2)c2nn[nH]c2n1 (stereo partly drawn) [Example 221, 7-[(1R)-4-(3-benzylpyrrolidin-1-yl)-1-phenylbutyl]-3H-[1,2,3]triazolo[4,5-b]pyridin-5-amine] | 0.101 to 0.999 | 0.101 to 0.999 |  |  |
| Nc1cc([C@H](CCCN2CCC3(CC2)NC(=O)Nc2ccccc23)c2ccccc2)c2nn[nH]c2n1 [Example 222, 1-[(4R)-4-{5-amino-3H-[1,2,3]triazolo [4,5-b]pyridin-7-yl}-4-phenylbutyl]-2′,3′-dihydro-1′H-spiro [piperidine-4,4′-quinazoline]-2′-one] | 1 to 10 | 0.001 to 0.1 |  |  |
| Nc1cc(C(CCO[C@H]2CC[C@H](c3ccccc3)CC2)c2ccccc2)c2nn[nH]c2n1 (some centres unmarked) [Example 223, 7-(1-phenyl-3-((4-phenylcyclohexyl)oxy)propyl)-3H-[1,2,3]triazolo[4,5-b]pyridin-5-amine] | 0.101 to 0.999 | 0.101 to 0.999 |  |  |
| Nc1cc(C(CC(O)CCc2ccccc2)c2ccccc2)c2nn[nH]c2n1 (centres unmarked) [Example 225, 1-(5-amino-3H-[1,2,3]triazolo[4,5-b]pyridin-7-yl)-1,5-diphenylpentan-3-ol, TFA] | 0.101 to 0.999 | 0.101 to 0.999 |  |  |
| Nc1cc(C(CNCC(F)(F)c2ccccc2)c2ccccc2)c2nn[nH]c2n1 (centres unmarked) [Example 226, 7-(2-((2,2-difluoro-2-phenylethyl)amino)-1-phenylethyl)-3H-[1,2,3]triazolo[4,5-b]pyridin-5-amine] | 0.101 to 0.999 | 0.101 to 0.999 |  |  |
| Nc1cc(C(CNCCc2ccccc2)c2ccccc2)c2nn[nH]c2n1 (centres unmarked) [Example 228, 7-{1-phenyl-2-[(2-phenylethyl)amino]ethyl}-3H-[1,2,3]triazolo[4,5-b]pyridin-5-amine] | 1 to 10 | 1 to 10 |  |  |
| Nc1cc(C(Cc2ccc(O)cc2)c2ccccc2)c2nn[nH]c2n1 (centres unmarked) [Example 229, 4-(2-(5-amino-3H-[1,2,3]triazolo[4,5-b]pyridin-7-yl)-2-phenylethyl)phenol] | 0.001 to 0.1 | 0.101 to 0.999 |  |  |
| Nc1cc(C(Cc2cccc(O)c2)c2ccccc2)c2nn[nH]c2n1 (centres unmarked) [Example 230, 3-(2-(5-amino-3H-[1,2,3]triazolo[4,5-b]pyridin-7-yl)-2-phenylethyl)phenol] | 0.001 to 0.1 | 1 to 10 |  |  |
